Our source for the relative viability values is the supplement of paper PMC10307832.

Test in all cases: relative viability (nuclei count vs DMSO), 5 days (fraction); higher = more cells survive
Compound in test [1]: C1CC2=C(C1)C=C(C=C2)OC3=NC(=C4C(=N3)N(C=N4)CC5=CC=C(C=C5)C6=CC=CC=C6)N[C@@H](CC7=CC=CC=C7)CO [QS11] + CC(=O)Nc1cccc(-n2c(=O)n(C3CC3)c(=O)c3c(Nc4ccc(I)cc4F)n(C)c(=O)c(C)c32)c1 [Trametinib] (partner 0.02 µM)
The method, boiled down: (§1)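 Values are medians from duplicate plates. Each reflects relative viability, defined as the nuclei count of treated wells over that of vehicle wells. Lung cancer cell lines in 1536-well plates were pin-tool dosed one day after seeding with one drug alone or with a fixed anchor-drug dose plus five library-drug doses (not always all listed) in √10 steps, then fixed, stained and imaged at 4× after 5 days.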

Compound in test [2]: C[As](C)SC[C@H](NC(=O)CC[C@H](N)C(=O)O)C(=O)NCC(=O)O [Darinaparsin] + C[C@]1(O)C[C@@H](c2nc(-c3ccc4ccc(-c5ccccc5)nc4c3)c3c(N)nccn32)C1 [Linsitinib] (partner 1 µM)
The method, boiled down:
as §1

Compound in test [3]: CC1=C(C=C(C=C1)NC(=O)C2=CC(=CC=C2)C(C)(C)C#N)NC3=CC4=C(C=C3)N=CN(C4=O)C [AZ628] + CC1(C)CCC(c2ccc(Cl)cc2)=C(CN2CCN(c3ccc(C(=O)NS(=O)(=O)c4ccc(N[C@H](CCN5CCOCC5)CSc5ccccc5)c(S(=O)(=O)C(F)(F)F)c4)cc3)CC2)C1 [Navitoclax] (partner 0.5 µM)
The method, boiled down: as §1

Compound in test [4]: CC1=C(C=C(C=C1)NC(=O)C2=CC(=CC=C2)C(C)(C)C#N)NC3=CC4=C(C=C3)N=CN(C4=O)C [AZ628] + O=C(CCCCCCC(=O)Nc1ccccc1)NO [Vorinostat] (partner 1 µM)
The method, boiled down:
as §1

Consider LCLC-97TM1, for which the relative viability in test [1] (first compound 0.253 µM) was 0.213; in test [1] (first compound 2.53 µM), 0.223; in test [1] (first compound 8 µM), 0.277; in test [2] (first compound 0.08 µM), 0.162; in test [2] (first compound 0.8 µM), 0.164; in test [2] (first compound 2.53 µM), 0.173. Besides, the relative viability in test [2] (first compound 8 µM) was 0.178; in test [3] (first compound 0.08 µM), 0.86; in test [3] (first compound 0.253 µM), 0.436; in test [3] (first compound 0.8 µM) it was 0.48; in test [3] (first compound 2.53 µM) it was 0.437; in test [3] (first compound 8 µM), 0.255. The relative viability was 1.03 in test [4] (first compound 0.08 µM); 0.729 in test [4] (first compound 0.253 µM); 0.82 in test [4] (first compound 0.8 µM); 0.756 in test [4] (first compound 2.53 µM); 0.13 in test [4] (first compound 8 µM).
